Several values for one entry are separate records, joined by “and”; a condition that tells them apart may be missing. Equal values may be shown once. Toxic doses and inconclusive results are not listed. Numbered stars: 1 amine (or outer) side, 2 acyl side, 3 side chain; on linkers, the order of the positions; unused ones are H or OH. Bridge positions count the residues as written; N and C are the ends. Square brackets hold non-standard residues; d marks the D form. Peptide text beside a SMILES is read from it. I, II: the chains in the order shown. Actinocin(9to1) = Cc1c2oc3c(C)ccc(C(=O)[*:1])c3nc-2c(C(=O)[*:2])c(N)c1=O; aThr = C[C@H](O)[C@H](N)C(=O)O; NMeV = CN[C@H](C(=O)O)C(C)C; Sar = CNCC(=O)O

The subject of this experiment is BDF1 mice, L1210 leukemia sc, survival T/C. In words: NCI In Vivo Anticancer Drug Screen. Data for tumor model L1210 Leukemia (subcutaneous) in B6D2F1 (BDF1) mice. The following applies: endpoint: median survival time, higher = longer survival. In outline:
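Read-out: T/C ratio, i.e. survival or tumor size in treated mice over that in vehicle-treated controls, from mice bearing transplantable tumors.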

[1] abbreviates: dose: 1.08 mg/kg/injection, schedule: Q01DX Z (sc), vehicle: saline.
The mark [2] stands for this setting: dose: 1.8 mg/kg/injection, schedule: Q01DX Z (sc), vehicle: saline.
Setting [3] is: dose: 5.0 mg/kg/injection, schedule: Q01DX Z (sc), vehicle: saline.
The mark [4] stands for this setting: dose: 8.4 mg/kg/injection, schedule: Q01DX Z (sc), vehicle: saline.
Setting [5] is: dose: 500.0 mg/kg/injection, schedule: Q01DX Z (sc), vehicle: methylcellulose (MC).

Regarding `CC(=O)NC1=C(N2CC2)C(=O)C(NC(C)=O)=C(N2CC2)C1=O`, the T/C under setting [1] is 213 % of control, the T/C under setting [2] was 163 % of control, the T/C under setting [3] is 118 % of control and the T/C under setting [4] was 109 % of control.
As for `C[C@]12CCC(=O)C=C1CC[C@@H]1[C@@H]2[C@@H](O)C[C@@]2(C)[C@H]1CC[C@]2(O)C(=O)CO`, the T/C reads like this: (dose: 65.0 mg/kg/injection, schedule: Q01DX Z (sc), vehicle: methylcellulose (MC)) 100 % of control; (dose: 108.0 mg/kg/injection, schedule: Q01DX Z (sc), vehicle: methylcellulose (MC)) 100 % of control; (dose: 180.0 mg/kg/injection, schedule: Q01DX Z (sc), vehicle: methylcellulose (MC)) 100 % of control; (dose: 300.0 mg/kg/injection, schedule: Q01DX Z (sc), vehicle: methylcellulose (MC)) 100 % of control; under setting [5], 100 % of control.
As for `Cc1c2oc3c(C)ccc(C(=O)N[C@@H]4C(=O)N[C@H](C(C)C)C(=O)N5CCC[C@H]5C(=O)N(C)CC(=O)N(C)[C@@H](C(C)C)C(=O)O[C@H]4C)c3nc-2c(C(=O)N[C@@H]2C(=O)N[C@H](C(C)C)C(=O)N3CCC[C@H]3C(=O)N(C)CC(=O)N(C)[C@@H](C(C)C)C(=O)O[C@H]2C)c(N)c1=O` (I: [aThr][dV]P[Sar][NMeV] / II: [aThr][dV]P[Sar][NMeV]; ester I:1-I:C, II:1-II:C; linker I:N-II:N via Actinocin(9to1)), the T/C is 95 % of control (dose: 0.07 mg/kg/injection, schedule: Q01DX009 (sc), vehicle: saline); 110 % of control (dose: 0.07 mg/kg/injection, schedule: Q01DX Z (sc), vehicle: saline); 103 % of control (dose: 0.15 mg/kg/injection, schedule: Q01DX009 (sc), vehicle: saline); 106 % of control (dose: 0.3 mg/kg/injection, schedule: Q01DX009 (sc), vehicle: saline); 120 % of control (dose: 0.52 mg/kg/injection, schedule: Q01DX Z (sc), vehicle: saline); 120 % of control (dose: 0.86 mg/kg/injection, schedule: Q01DX Z (sc), vehicle: saline).
For the compound `CCCCN(CCCC)P(=O)(N1CC1)N1CC1`, the T/C by setting is: under setting [2], 110 % of control; (dose: 3.0 mg/kg/injection, schedule: Q01DX Z (sc), vehicle: saline) 110 % of control.
Take `CNNCc1ccc(C(=O)NC(C)C)cc1`: the T/C (dose: 65.0 mg/kg/injection, schedule: Q01DX009 (sc), vehicle: saline) was 116 % of control and 122 % of control; the T/C (dose: 65.0 mg/kg/injection, schedule: Q01DX014 (sc), vehicle: saline) is 119 % of control and 122 % of control; the T/C (dose: 65.0 mg/kg/injection, schedule: Q01DX015 (sc), vehicle: saline) was 122 % of control; the T/C (dose: 108.0 mg/kg/injection, schedule: Q01DX014 (sc), vehicle: saline) is 111 % of control; the T/C (dose: 108.0 mg/kg/injection, schedule: Q01DX015 (sc), vehicle: saline) was 122 % of control and 123 % of control; the T/C (dose: 180.0 mg/kg/injection, schedule: Q01DX015 (sc), vehicle: saline) is 150 % of control. The T/C runs as follows: (dose: 300.0 mg/kg/injection, schedule: Q01DX015 (sc), vehicle: saline) 163 % of control and 166 % of control; (dose: 500.0 mg/kg/injection, schedule: Q01DX014 (sc), vehicle: saline) 122 % of control; (dose: 500.0 mg/kg/injection, schedule: Q01DX015 (sc), vehicle: saline) 116 % of control and 117 % of control.
With `CCNc1nncs1`, the T/C was 120 % of control (dose: 65.0 mg/kg/injection, schedule: Q01DX Z (sc), vehicle: other); 150 % of control (dose: 180.0 mg/kg/injection, schedule: Q01DX Z (sc), vehicle: other); 175 % of control (dose: 300.0 mg/kg/injection, schedule: Q01DX Z (sc), vehicle: other).
As to `Cn1cnc([N+](=O)[O-])c1Sc1ncnc2nc[nH]c12`, the T/C was 100 % of control (dose: 3.0 mg/kg/injection, schedule: Q01DX Z (oral), vehicle: methylcellulose (MC)); 100 % of control (dose: 5.0 mg/kg/injection, schedule: Q01DX Z (sc), vehicle: methylcellulose (MC)); 100 % of control (dose: 8.4 mg/kg/injection, schedule: Q01DX Z (sc), vehicle: methylcellulose (MC)); 100 % of control (dose: 14.0 mg/kg/injection, schedule: Q01DX Z (sc), vehicle: methylcellulose (MC)); 100 % of control (dose: 23.0 mg/kg/injection, schedule: Q01DX Z (oral), vehicle: methylcellulose (MC)); 110 % of control (dose: 28.0 mg/kg/injection, schedule: Q01DX Z (sc), vehicle: methylcellulose (MC)). Also, the T/C by setting is: (dose: 39.0 mg/kg/injection, schedule: Q01DX Z (oral), vehicle: methylcellulose (MC)) 100 % of control; (dose: 39.0 mg/kg/injection, schedule: Q01DX Z (sc), vehicle: methylcellulose (MC)) 100 % of control; (dose: 47.0 mg/kg/injection, schedule: Q01DX Z (sc), vehicle: methylcellulose (MC)) 115 % of control; (dose: 65.0 mg/kg/injection, schedule: Q01DX Z (oral), vehicle: methylcellulose (MC)) 100 % of control; (dose: 78.0 mg/kg/injection, schedule: Q01DX Z (sc), vehicle: methylcellulose (MC)) 120 % of control; (dose: 360.0 mg/kg/injection, schedule: Q01DX Z (sc), vehicle: methylcellulose (MC)) 110 % of control. In addition, the T/C runs as follows: (dose: 500.0 mg/kg/injection, schedule: Q01DX Z (oral), vehicle: methylcellulose (MC)) 155 % of control; under setting [5], 122 % of control; (dose: 600.0 mg/kg/injection, schedule: Q01DX Z (sc), vehicle: methylcellulose (MC)) 105 % of control.
As to `C=CC(O)CN1CC1` (centres undefined), the T/C is 100 % of control (dose: 0.65 mg/kg/injection, schedule: Q01DX Z (sc), vehicle: saline); 100 % of control under setting [1]; 100 % of control (dose: 1.7 mg/kg/injection, schedule: Q01DX Z (sc), vehicle: saline); 100 % of control under setting [2]; 111 % of control (dose: 2.8 mg/kg/injection, schedule: Q01DX Z (sc), vehicle: saline); 104 % of control (dose: 3.0 mg/kg/injection, schedule: Q02DX Z (sc), vehicle: saline). In addition, the T/C runs as follows: (dose: 4.7 mg/kg/injection, schedule: Q01DX Z (sc), vehicle: saline) 160 % of control; under setting [3], 155 % of control and 159 % of control and 163 % of control; (dose: 5.0 mg/kg/injection, schedule: Q02DX Z (sc), vehicle: saline) 118 % of control; (dose: 7.8 mg/kg/injection, schedule: Q01DX Z (sc), vehicle: saline) 170 % of control and 177 % of control; under setting [4], 122 % of control; (dose: 8.4 mg/kg/injection, schedule: Q## X Z (sc), vehicle: saline) 109 % of control. Further, the T/C was 113 % of control (dose: 14.0 mg/kg/injection, schedule: Q01DX Z (sc), vehicle: saline); 181 % of control (dose: 14.0 mg/kg/injection, schedule: Q02DX Z (sc), vehicle: saline); 118 % of control (dose: 14.0 mg/kg/injection, schedule: Q## X Z (sc), vehicle: saline); 110 % of control (dose: 21.6 mg/kg/injection, schedule: Q01DX Z (sc), vehicle: saline); 100 % of control (dose: 23.0 mg/kg/injection, schedule: Q01DX Z (sc), vehicle: saline); 150 % of control (dose: 23.0 mg/kg/injection, schedule: Q02DX Z (sc), vehicle: saline). Further, the T/C is, setting by setting: (dose: 23.0 mg/kg/injection, schedule: Q## X Z (sc), vehicle: saline) 154 % of control; (dose: 36.0 mg/kg/injection, schedule: Q01DX Z (sc), vehicle: saline) 111 % of control; (dose: 39.0 mg/kg/injection, schedule: Q## X Z (sc), vehicle: saline) 159 % of control; (dose: 60.0 mg/kg/injection, schedule: Q01DX Z (sc), vehicle: saline) 100 % of control; (dose: 65.0 mg/kg/injection, schedule: Q01DX001 (sc), vehicle: saline) 118 % of control; (dose: 65.0 mg/kg/injection, schedule: Q02DX Z (sc), vehicle: saline) 104 % of control. The T/C (dose: 65.0 mg/kg/injection, schedule: Q## X Z (sc), vehicle: saline) was 109 % of control.

The values above are taken from PubChem BioAssay AID250 (DTP/NCI, 2004).
